Measurements reported in PubChem BioAssay (NCI).
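Dose response: 5 concentrations. Exposure: 48 h. Format: 96-well plates. Endpoint: linear interpolation; highest concentration if not reached. TGI: total growth inhibition.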

Columns and labels:
Experiment in all cases: inhibition of tumour cell growth, NCI panel, 48 h
786-0 renal = test system: 786-0 renal
A498 renal = test system: A498 renal
A549 NSCLC = test system: A549 NSCLC
ACHN renal = test system: ACHN renal
CAKI-1 renal = test system: CAKI-1 renal
CCRF-CEM leukemia = test system: CCRF-CEM leukemia
COLO 205 colon = test system: COLO 205 colon
DLD-1 colon = test system: DLD-1 colon
DMS 114 small cell lung = test system: DMS 114 small cell lung
DMS 273 small cell lung = test system: DMS 273 small cell lung
EKVX NSCLC = test system: EKVX NSCLC
HCC-2998 colon = test system: HCC-2998 colon
HCT-116 colon = test system: HCT-116 colon
HCT-15 colon = test system: HCT-15 colon
HL-60(TB) leukemia = test system: HL-60(TB) leukemia
HOP-18 NSCLC = test system: HOP-18 NSCLC
HOP-62 NSCLC = test system: HOP-62 NSCLC
HOP-92 NSCLC = test system: HOP-92 NSCLC
HT29 colon = test system: HT29 colon
IGROV1 ovarian = test system: IGROV1 ovarian
K-562 leukemia = test system: K-562 leukemia
KM12 colon = test system: KM12 colon
KM20L2 colon = test system: KM20L2 colon
LOX IMVI melanoma = test system: LOX IMVI melanoma
LXFL 529 NSCLC = test system: LXFL 529 NSCLC
M14 melanoma = test system: M14 melanoma
M19-MEL melanoma = test system: M19-MEL melanoma
MALME-3M melanoma = test system: MALME-3M melanoma
MOLT-4 leukemia = test system: MOLT-4 leukemia
NCI-H226 lung = test system: NCI-H226 lung
NCI-H23 lung = test system: NCI-H23 lung
NCI-H460 lung = test system: NCI-H460 lung
NCI-H522 lung = test system: NCI-H522 lung
OVCAR-4 ovarian = test system: OVCAR-4 ovarian
OVCAR-5 ovarian = test system: OVCAR-5 ovarian
OVCAR-8 ovarian = test system: OVCAR-8 ovarian
RPMI-8226 leukemia = test system: RPMI-8226 leukemia
RXF 393 renal = test system: RXF 393 renal
SF-268 CNS = test system: SF-268 CNS
SF-295 CNS = test system: SF-295 CNS
SF-539 CNS = test system: SF-539 CNS
SK-MEL-2 melanoma = test system: SK-MEL-2 melanoma
SK-MEL-28 melanoma = test system: SK-MEL-28 melanoma
SK-MEL-5 melanoma = test system: SK-MEL-5 melanoma
SK-OV-3 ovarian = test system: SK-OV-3 ovarian
SN12C renal = test system: SN12C renal
SNB-19 CNS = test system: SNB-19 CNS
SNB-75 CNS = test system: SNB-75 CNS
SNB-78 CNS = test system: SNB-78 CNS
SW-620 colon = test system: SW-620 colon
TK-10 renal = test system: TK-10 renal
U251 CNS = test system: U251 CNS
UACC-257 melanoma = test system: UACC-257 melanoma
UACC-62 melanoma = test system: UACC-62 melanoma
UO-31 renal = test system: UO-31 renal
XF 498 CNS = test system: XF 498 CNS

Measured: TGI

CCN1C[C@]2(C)CC[C@H](OC)C34C1C([C@H](OC(C)=O)[C@@H]32)[C@@]1(OC)C[C@H](OC)[C@H]2C[C@@H]4[C@@H]1[C@H]2O
> 100 µM: 786-0 renal | A498 renal | A549 NSCLC | ACHN renal | CAKI-1 renal | CCRF-CEM leukemia | COLO 205 colon | DLD-1 colon | DMS 114 small cell lung | DMS 273 small cell lung | EKVX NSCLC | HCC-2998 colon | HCT-116 colon | HCT-15 colon | HL-60(TB) leukemia | HOP-18 NSCLC | HOP-62 NSCLC | HOP-92 NSCLC | HT29 colon | IGROV1 ovarian | K-562 leukemia | KM12 colon | KM20L2 colon | LOX IMVI melanoma | LXFL 529 NSCLC | M14 melanoma | M19-MEL melanoma | MALME-3M melanoma | MOLT-4 leukemia | NCI-H226 lung | NCI-H23 lung | NCI-H460 lung | NCI-H522 lung | OVCAR-4 ovarian | OVCAR-5 ovarian | OVCAR-8 ovarian | RPMI-8226 leukemia | RXF 393 renal | SF-268 CNS | SF-295 CNS | SF-539 CNS | SK-MEL-2 melanoma | SK-MEL-28 melanoma | SK-MEL-5 melanoma | SK-OV-3 ovarian | SN12C renal | SNB-19 CNS | SNB-75 CNS | SNB-78 CNS | SW-620 colon | TK-10 renal | U251 CNS | UACC-257 melanoma | UACC-62 melanoma | UO-31 renal | XF 498 CNS
